doi:10.1101/2024.06.05.597555v1 (biorxiv, 2024)
Where two headings read alike, the source gives them in different places.

Key:
DENV-2 = test: microbe, parasite or virus in culture; conditions: Dengue virus, DENV2, Vero, 48 h, read-out: % inhibition
[1] = target: T1, NS2B(H)-NS3pro (DENV-2 NS2B-NS3 protease) (Dengue virus 2 Thailand/NGS-C/1944, UniProt P14340); test: biochemical; conditions: read-out: % inhibition
T1 sequence (P14340 1394-1433 limits assumed): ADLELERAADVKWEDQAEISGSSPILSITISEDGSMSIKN
T1 sequence (P14340 1476-1660 limits assumed): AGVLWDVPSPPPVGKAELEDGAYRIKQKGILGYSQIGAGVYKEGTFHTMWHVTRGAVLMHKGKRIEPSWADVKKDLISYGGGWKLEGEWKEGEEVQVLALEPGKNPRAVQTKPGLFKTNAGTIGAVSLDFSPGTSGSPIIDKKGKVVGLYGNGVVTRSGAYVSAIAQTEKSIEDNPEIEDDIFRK

[2] = target: T1, NS2B(H)-NS3pro (DENV-2 NS2B-NS3 protease); test: biochemical; conditions: read-out: % inhibition; remark: listed apart in the source
[3] = target: T1, NS2B(H)-NS3pro (DENV-2 NS2B-NS3 protease); test: fluorometric protease assay, AMC substrate; assay type: biochemical; conditions: read-out: % inhibition at 50 μM
in vitro [4] = test: in vitro; design: species or system DENV2proHeLa (HeLa); conditions: human, denv2prohela cells
[5] = target: T2, DENV2proHeLa NS2B-NS3 protease (Dengue virus 2 Thailand/16681/84, UniProt P29990); test: cell-based
[6] = target: T2, DENV2proHeLa NS2B-NS3 protease; test: cell-based; design: species or system DENV2proHeLa (HeLa); conditions: HeLa, read-out: % inhibition
[7] = target: T1, NS2B(H)-NS3pro (DENV-2 NS2B-NS3 protease); test: biochemical; conditions: read-out: % inhibition; remark: listed apart in the source
[8] = target: T2, DENV2proHeLa NS2B-NS3 protease; test: cell-based; design: species or system DENV2proHeLa (HeLa); conditions: HeLa, read-out: % inhibition; remark: listed apart in the source
in vitro [9] = test: in vitro; design: species or system DENV2proHeLa (HeLa); conditions: human, denv2prohela cells; remark: listed apart in the source
[10] = target: T1, NS2B(H)-NS3pro (DENV-2 NS2B-NS3 protease); test: fluorometric protease assay, AMC substrate; assay type: biochemical; conditions: pH 7.5, HEPES, CHAPS; substrate Bz-nKRR-AMC
[11] = target: T1, NS2B(H)-NS3pro (DENV-2 NS2B-NS3 protease); conditions: read-out: IC50 (C7.5-HEPES AMC); AMC substrate, HEPES pH 7.5, CHAPS; inhibitor
[12] = target: T2, DENV2proHeLa NS2B-NS3 protease; test: cell-based; design: species or system DENV2proHeLa (HeLa)
[13] = target: T1, NS2B(H)-NS3pro (DENV-2 NS2B-NS3 protease); test: biochemical; conditions: read-out: % inhibition; remark: listed apart in the source
in vitro [14] = test: in vitro; design: species or system DENV2proHeLa (HeLa); conditions: human, denv2prohela cells; remark: listed apart in the source
[15] = target: T2, DENV2proHeLa NS2B-NS3 protease; test: cell-based; design: species or system DENV2proHeLa (HeLa); remark: listed apart in the source
[16] = target: T2, DENV2proHeLa NS2B-NS3 protease; test: cell-based; design: species or system DENV2proHeLa (HeLa); conditions: HeLa, read-out: % inhibition; remark: listed apart in the source
[17] = target: T1, NS2B(H)-NS3pro (DENV-2 NS2B-NS3 protease); test: biochemical; conditions: read-out: % inhibition; remark: listed apart in the source
[18] = target: T1, NS2B(H)-NS3pro (DENV-2 NS2B-NS3 protease); conditions: read-out: IC50 (C7.5-HEPES AMC); AMC substrate, HEPES pH 7.5, CHAPS; inhibitor; remark: listed apart in the source
[19] = target: T1, NS2B(H)-NS3pro (DENV-2 NS2B-NS3 protease); test: biochemical; conditions: read-out: % inhibition; remark: listed apart in the source
[20] = target: T2, DENV2proHeLa NS2B-NS3 protease; test: cell-based; design: species or system DENV2proHeLa (HeLa); conditions: HeLa, read-out: % inhibition; remark: listed apart in the source
in vitro [21] = test: in vitro; design: species or system DENV2proHeLa (HeLa); conditions: human, denv2prohela cells; remark: listed apart in the source
[22] = read-out: DENV2proHeLa EC50, inhibitor

T2 sequence (P29990 1476-2093 limits assumed): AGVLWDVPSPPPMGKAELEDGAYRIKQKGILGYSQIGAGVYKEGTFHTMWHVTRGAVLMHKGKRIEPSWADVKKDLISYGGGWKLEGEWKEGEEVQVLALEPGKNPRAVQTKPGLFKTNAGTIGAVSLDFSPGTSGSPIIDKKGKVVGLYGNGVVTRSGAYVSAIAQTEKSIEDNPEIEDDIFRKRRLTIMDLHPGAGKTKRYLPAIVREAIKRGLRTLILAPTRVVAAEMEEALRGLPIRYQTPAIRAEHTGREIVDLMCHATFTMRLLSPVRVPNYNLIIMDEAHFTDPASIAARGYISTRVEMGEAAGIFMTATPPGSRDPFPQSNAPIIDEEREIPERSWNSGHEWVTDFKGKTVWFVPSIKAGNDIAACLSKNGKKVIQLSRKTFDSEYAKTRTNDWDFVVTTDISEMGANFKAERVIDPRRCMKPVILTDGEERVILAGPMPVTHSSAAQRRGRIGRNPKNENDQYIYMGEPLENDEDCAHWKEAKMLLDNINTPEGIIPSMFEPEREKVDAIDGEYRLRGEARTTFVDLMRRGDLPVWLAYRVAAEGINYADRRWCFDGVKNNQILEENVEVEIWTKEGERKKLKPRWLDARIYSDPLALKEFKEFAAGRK
T2 sequence (P29990 1346-1475 partner limits assumed): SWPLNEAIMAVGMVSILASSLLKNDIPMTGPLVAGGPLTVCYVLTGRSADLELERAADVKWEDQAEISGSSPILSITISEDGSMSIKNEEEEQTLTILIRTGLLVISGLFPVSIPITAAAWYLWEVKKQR

CCCCCC(=O)N[C@H](C(=O)NCc1ccc(NC(=N)N)cc1)c1ccc(OCc2ccccc2)cc1 [NK-189]
inhibition at 25 µM (DENV-2): 21% | inhibition at 50 µM [1]: 97% | inhibition at 50 µM [2]: 95%

CCCCCC(=O)N[C@H](C(=O)Nc1cccc(C(N)=O)c1)c1ccc(OCc2ccccc2)cc1 [compound 2]
inhibition at 50 µM [3]: 64 ± 5.1%

NC(=O)c1cccc(NC(=O)[C@@H](NC(=O)c2ccc(Nc3ccccc3)cc2)c2ccc(OCc3ccccc3)cc2)c1 [compound 7]
inhibition at 25 µM (DENV-2): < 10% | CC50 (in vitro [4]): ≥ 100 µM | EC50 [5]: 0.7 µM | inhibition at 12.5 µM [6]: 93% | inhibition at 50 µM [7]: 99%

CC(CC(=O)N[C@H](C(=O)Nc1cccc(C(N)=O)c1)c1ccc(OCc2ccccc2)cc1)CC(C)(C)C (stereo partly drawn) [compound 16]
inhibition at 25 µM (DENV-2): 98% | EC50 [5]: 11 µM | inhibition at 12.5 µM [8]: 61% | CC50 (in vitro [9]): ≥ 100 µM | IC50 [10]: 11 µM

CCCCC(CC)C(=O)N[C@H](C(=O)Nc1cccc(C(N)=O)c1)c1ccc(OCc2ccccc2)cc1 (stereo partly drawn) [compound 20, 20]
inhibition at 25 µM (DENV-2): 90% | IC50 [11]: 22 µM | EC50 [12, 22]: 11 µM | inhibition at 12.5 µM [8]: 63% | CC50 (in vitro [9]): > 50 µM

NC(=O)c1cccc(NC(=O)[C@@H](NC(=O)C2COc3ccccc3C2)c2ccc(OCc3ccccc3)cc2)c1 (stereo partly drawn) [compound 26, 26]
inhibition at 50 µM [13]: 88% | IC50 [11]: 16 µM | EC50 [12]: 6.8 µM | inhibition at 12.5 µM [8]: 77% | CC50 (in vitro [9]): > 50 µM

NC(=O)c1cccc(NC(=O)[C@@H](NC(=O)c2cc(O)n(-c3ccccc3)n2)c2ccc(OCc3ccccc3)cc2)c1 [compound 27]
inhibition at 12.5 µM [8]: 24% | CC50 (in vitro [9]): > 50 µM | IC50 [10]: 30 µM

CC(C(=O)N[C@H](C(=O)Nc1cccc(C(N)=O)c1)c1ccc(OCc2ccccc2)cc1)c1ccccc1 (stereo partly drawn) [compound 28, 28]
CC50 (in vitro [14]): > 50 µM | EC50 [15]: 8 µM | inhibition at 12.5 µM [16]: 77% | inhibition at 50 µM [17]: 83% | IC50 [18]: 17 µM

Cc1onc(-c2ccc(F)cc2)c1C(=O)N[C@H](C(=O)Nc1cccc(C(N)=O)c1)c1ccc(OCc2ccccc2)cc1 [compound 29, 29]
CC50 (in vitro [14]): > 50 µM | inhibition at 12.5 µM [16]: 64% | inhibition at 50 µM [17]: 82% | IC50 [18]: 14 µM

COc1cc(CC(=O)N[C@H](C(=O)Nc2cccc(C(N)=O)c2)c2ccc(OCc3ccccc3)cc2)cc(OC)c1OC [compound 31]
CC50 (in vitro [14]): > 50 µM | inhibition at 25 µM (DENV-2): 11% | EC50 [15, 22]: 12 µM | inhibition at 12.5 µM [16]: 75% | inhibition at 50 µM [3]: 76%

NC(=O)c1cccc(NC(=O)[C@@H](NC(=O)c2ccc(Oc3ccccc3)nc2)c2ccc(OCc3ccccc3)cc2)c1 [compound 33]
CC50 (in vitro [14]): > 100 µM | inhibition at 12.5 µM [16]: 55% | inhibition at 50 µM [17]: 70% | EC50 [5]: 8.8 µM | IC50 [10]: 34 µM

CC(C)CCC(=O)N1CCC(C(=O)N[C@H](C(=O)Nc2cccc(C(N)=O)c2)c2ccc(OCc3ccccc3)cc2)CC1 [compound 34, 34]
CC50 (in vitro [14]): > 100 µM | EC50 [15]: 11 µM | inhibition at 12.5 µM [16]: 53% | inhibition at 50 µM [17]: 69%

Cc1nc(-c2ccncc2)sc1C(=O)N[C@H](C(=O)Nc1cccc(C(N)=O)c1)c1ccc(OCc2ccccc2)cc1 [compound 35, 35]
CC50 (in vitro [14]): > 50 µM | inhibition at 12.5 µM [16]: 78% | inhibition at 50 µM [17]: 69%

NC(=O)c1cccc(NC(=O)[C@@H](NC(=O)OCc2ccccc2)c2ccc(OCc3ccccc3)cc2)c1 [compound 36, 36]
CC50 (in vitro [14]): ≥ 50 µM | EC50 [15]: 5 µM | inhibition at 12.5 µM [16]: 60% | IC50 [18]: 28 µM

NC(=O)c1cccc(NC(=O)C(NC(=O)c2ccccc2)c2ccc(OCc3ccccc3)cc2)c1 (stereo not drawn) [compound 42, 42]
CC50 (in vitro [14]): > 100 µM | inhibition at 12.5 µM [16]: 80% | inhibition at 50 µM [17]: 56%

NC(=O)c1cccc(NC(=O)C(Cc2ccc(OCc3ccc4ccccc4c3)cc2)NC(=O)c2ccc(Oc3ccccc3)cc2)c1 (stereo not drawn) [compound 63]
inhibition at 50 µM [19]: 100% | EC50 [5]: 5.1 µM | inhibition at 12.5 µM [20]: 82% | CC50 (in vitro [21]): 16 µM | IC50 [10]: 4.8 µM

NC(=O)c1cccc(NC(=O)C(Cc2ccc3ccccc3c2)NC(=O)c2ccc(Oc3ccccc3)cc2)c1 (stereo not drawn) [compound 65]
EC50 [5]: 7.4 µM | inhibition at 12.5 µM [20]: 55% | CC50 (in vitro [21]): > 50 µM | IC50 [10]: 5.9 µM

CC(C(=O)NC(Cc1c[nH]c2ccccc12)C(=O)Nc1cccc(C(N)=O)c1)c1ccc2c(c1)[nH]c1ccc(Cl)cc12 (stereo not drawn) [compound 67, 67]
inhibition at 50 µM [19]: 91% | inhibition at 12.5 µM [20]: 91% | CC50 (in vitro [21]): 16 µM

NC(=O)c1cccc(NC(=O)C(Cc2c[nH]c3ccccc23)NC(=O)c2ccc(Oc3ccccc3)cc2)c1 (stereo not drawn) [compound 69, 69]
inhibition at 50 µM [19]: 80% | inhibition at 12.5 µM [20]: 65% | CC50 (in vitro [21]): > 50 µM
